Tests used:
Test in all cases: relative viability (nuclei count vs DMSO), 5 days (fraction); higher = more cells survive
[1] = compound: CN(c1ncccc1CNc1nc(Nc2ccc3c(c2)CC(=O)N3)ncc1C(F)(F)F)S(C)(=O)=O + C[C@]1(O)C[C@@H](c2nc(-c3ccc4ccc(-c5ccccc5)nc4c3)c3c(N)nccn32)C1 [Linsitinib] (partner 1 µM)
Method in brief: (§1)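 Relative viability divides the nuclei count in treated wells by that in vehicle wells. Lung cancer cell lines were seeded in 1536-well plates, dosed by pin tool the next day, and fixed and stained after 5 days in one step with final 0.05% Triton X-100, 1% formaldehyde and 1 ug/ml Hoechst. Dosing was a single drug or a fixed anchor-drug dose plus five library-drug doses (not always all listed) in √10 steps, and values are medians of duplicate plates imaged at 4×.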

[2] = compound: CN(c1ncccc1CNc1nc(Nc2ccc3c(c2)CC(=O)N3)ncc1C(F)(F)F)S(C)(=O)=O + C[C@@H](Oc1cc(-c2cnn(C3CCNCC3)c2)cnc1N)c1c(Cl)ccc(F)c1Cl [Crizotinib] (partner 1 µM)
Method in brief: as §1

[3] = compound: CN(c1ncccc1CNc1nc(Nc2ccc3c(c2)CC(=O)N3)ncc1C(F)(F)F)S(C)(=O)=O + COc1cccc2cc(-c3nc([C@H]4CC[C@H](C(=O)O)CC4)n4ncnc(N)c34)[nH]c12 [OSI-027] (partner 0.5 µM)
Method in brief: as §1

[4] = compound: CN(c1ncccc1CNc1nc(Nc2ccc3c(c2)CC(=O)N3)ncc1C(F)(F)F)S(C)(=O)=O + Cc1cc(Nc2cc(N3CCN(C)CC3)nc(Sc3ccc(NC(=O)C4CC4)cc3)n2)n[nH]1 [Tozasertib] (partner 0.1 µM)
Method in brief: as §1

Cell Line	relative viability ([1]; first compound 0.01 µM)	relative viability ([1]; first compound 0.03162 µM)	relative viability ([1]; first compound 0.1 µM)	relative viability ([1]; first compound 0.3162 µM)	relative viability ([1]; first compound 1 µM)	relative viability ([2]; first compound 0.01 µM)	relative viability ([2]; first compound 0.03162 µM)	relative viability ([2]; first compound 0.1 µM)	relative viability ([2]; first compound 0.3162 µM)	relative viability ([2]; first compound 1 µM)	relative viability ([3]; first compound 0.01 µM)	relative viability ([3]; first compound 0.03162 µM)	relative viability ([3]; first compound 0.1 µM)	relative viability ([3]; first compound 0.3162 µM)	relative viability ([3]; first compound 1 µM)	relative viability ([4]; first compound 0.01 µM)	relative viability ([4]; first compound 0.03162 µM)	relative viability ([4]; first compound 0.1 µM)	relative viability ([4]; first compound 0.3162 µM)	relative viability ([4]; first compound 1 µM)
NCI-H441	0.457	0.707	0.513	0.583	0.536	0.679	0.825	0.604	0.692	0.654	0.76	0.725	0.596	0.77	0.518	0.697	0.628	0.581	0.583	0.512
NCI-H1793	0.883	0.929	0.894	0.857	0.601	–	–	–	–	–	0.238	0.276	0.246	0.288	0.297	0.32	0.379	0.332	0.222	0.23
NCI-H23	0.598	0.695	0.549	0.678	0.723	0.444	0.483	0.456	0.59	0.457	0.735	0.55	0.625	0.769	0.547	0.494	0.356	0.407	0.295	0.351
HARA	0.945	1.06	1.03	0.978	0.856	0.938	0.938	1	1.02	0.698	0.54	0.481	0.524	0.612	0.55	0.11	0.117	0.116	0.0944	0.0785
NCI-H1792	0.442	0.487	0.512	0.566	0.559	0.936	1.01	0.971	0.938	0.961	0.787	0.892	0.736	0.697	0.688	–	–	–	–	–
NCI-H1703	0.692	0.647	0.756	0.836	0.637	0.586	0.678	1.15	0.986	0.417	–	–	–	–	–	–	–	–	–	–
NCI-H1648	–	–	–	–	–	–	–	–	–	–	0.28	0.237	0.266	0.25	0.24	0.433	0.36	0.317	0.386	0.407
CAL-12T	0.886	0.861	0.705	0.616	0.639	0.619	0.538	0.576	0.566	0.593	0.725	0.874	0.58	0.719	0.514	0.271	0.249	0.274	0.271	0.209
NCI-H727	0.317	0.305	0.352	0.273	0.21	0.925	1.02	0.633	0.885	0.689	0.782	0.75	0.649	0.59	0.537	0.675	0.549	0.571	0.543	0.52
NCI-H2085	0.925	0.981	0.895	0.842	0.776	0.94	0.799	0.742	0.778	0.648	0.77	0.907	0.735	0.734	0.749	0.797	0.721	0.772	0.697	0.584
NCI-H1395	0.939	1.12	0.981	1.1	1.2	–	–	–	–	–	0.657	0.606	0.671	0.738	0.721	0.724	0.806	0.784	0.856	0.782
SW 900	–	–	–	–	–	–	–	–	–	–	0.623	0.574	0.659	0.514	0.49	0.547	0.629	0.543	0.495	0.446
NCI-H460	0.79	1.17	0.785	0.628	0.788	1.1	1.15	0.994	0.891	0.712	0.666	0.964	0.691	0.705	0.665	0.499	0.464	0.491	0.137	0.396
A549	0.526	0.761	0.558	0.606	0.694	0.762	0.799	0.803	0.797	0.526	–	–	–	–	–	–	–	–	–	–
IA-LM	0.6	0.54	0.583	–	0.599	0.862	0.924	0.908	0.91	0.714	–	–	–	–	–	–	–	–	–	–
EKVX	0.94	1.13	0.85	0.931	0.882	0.895	0.828	0.98	0.801	0.789	0.757	0.711	0.618	0.685	0.614	0.456	0.428	0.454	0.339	0.316
ChaGo-K-1	–	–	–	–	–	1.1	1.21	1.08	–	1.05	0.537	0.566	0.544	0.538	0.659	0.233	0.231	0.223	0.236	0.205
NCI-H1755	0.997	0.951	0.961	0.979	0.908	0.873	0.94	0.889	0.781	0.777	0.708	0.789	0.737	0.678	0.699	0.519	0.533	0.593	0.472	0.61
NCI-H2228	0.502	0.286	0.627	1.06	0.929	0.408	0.516	0.39	0.47	0.402	0.825	0.827	0.563	0.514	0.464	0.271	0.243	0.249	0.239	0.207

Cell Line	relative viability ([1]; first compound 0.01 µM)	relative viability ([1]; first compound 0.03162 µM)	relative viability ([1]; first compound 0.1 µM)	relative viability ([1]; first compound 0.3162 µM)	relative viability ([1]; first compound 1 µM)	relative viability ([2]; first compound 0.01 µM)	relative viability ([2]; first compound 0.03162 µM)	relative viability ([2]; first compound 0.1 µM)	relative viability ([2]; first compound 0.3162 µM)	relative viability ([2]; first compound 1 µM)	relative viability ([3]; first compound 0.01 µM)	relative viability ([3]; first compound 0.03162 µM)	relative viability ([3]; first compound 0.1 µM)	relative viability ([3]; first compound 0.3162 µM)	relative viability ([3]; first compound 1 µM)	relative viability ([4]; first compound 0.01 µM)	relative viability ([4]; first compound 0.03162 µM)	relative viability ([4]; first compound 0.1 µM)	relative viability ([4]; first compound 0.3162 µM)	relative viability ([4]; first compound 1 µM)
NCI-H2087	1.03	1.04	1.14	1.16	0.99	0.787	0.915	0.784	0.889	0.749	0.513	0.766	0.594	0.659	0.585	0.224	0.238	0.236	0.293	0.207
LU99A	0.582	0.552	0.609	0.537	0.656	0.594	0.584	0.584	0.758	0.633	0.284	0.279	0.27	0.277	0.352	0.319	0.301	0.297	0.258	0.246
NCI-H1355	0.776	0.943	0.846	0.78	0.679	1.06	1.13	1.02	0.97	0.924	0.481	0.428	0.377	0.412	0.396	0.538	0.513	0.557	0.496	0.501
NCI-H520	1.03	0.941	1	1.03	0.842	0.874	0.795	0.78	0.782	0.601	0.339	0.331	0.244	0.321	0.344	0.485	0.474	0.467	0.546	0.429
NCI-H661	0.657	0.722	0.563	0.679	0.637	0.973	0.955	1.02	0.904	0.915	0.69	0.668	0.641	0.774	0.784	0.294	0.334	0.361	0.372	0.353
NCI-H650	0.948	0.696	0.644	0.764	0.76	0.68	0.727	0.675	0.538	0.675	0.401	0.555	0.408	0.455	0.465	0.713	0.712	0.637	0.622	0.608
NCI-H647	1.1	1.4	1.13	0.95	1.1	1.01	1.43	1.05	1	1.06	0.656	0.76	0.683	0.62	0.592	0.315	0.224	0.498	0.353	0.248
201T	1.05	1.04	1.04	1.01	0.995	1.05	0.991	1.02	0.975	1	0.658	0.702	0.741	0.663	0.648	0.921	1	0.912	0.845	0.894
NCI-H838	0.981	1.07	1.02	0.83	0.745	0.807	1.02	0.873	0.672	0.488	0.492	0.413	0.396	0.394	0.413	0.27	0.336	0.261	0.272	0.19
SW 1573	0.926	0.635	0.754	0.863	0.867	0.874	0.732	0.777	0.843	0.78	0.549	0.669	0.569	0.738	0.559	0.166	0.198	0.188	0.201	0.16
PC-14	0.976	1	1.06	0.961	1.01	0.874	0.858	1.04	0.872	0.765	0.931	1.05	0.895	1.13	0.809	0.531	0.705	0.54	0.59	0.52
LK-2	0.631	0.534	0.546	0.526	0.766	0.248	0.215	0.254	0.21	0.192	0.198	0.157	0.244	0.205	0.18	0.201	0.163	0.174	0.169	0.182
COR-L23	0.853	0.983	0.818	1.07	0.735	0.653	0.649	0.7	0.594	0.486	0.782	0.722	0.681	0.756	0.642	0.184	0.195	0.186	0.146	0.129
NCI-H1650	–	–	–	–	–	1.01	0.945	1.17	–	0.94	0.64	0.727	0.701	0.612	0.645	0.497	0.359	0.429	0.323	0.269
NCI-H2170	–	–	–	–	–	1.23	1.22	1.31	–	1.21	0.672	0.695	0.679	0.791	0.752	0.741	0.691	0.679	0.649	0.716
NCI-H1563	1.16	1.23	1.31	1.07	1.06	0.855	0.83	0.91	0.864	0.799	0.78	0.79	0.771	0.788	0.753	–	–	–	–	–
EBC-1	0.951	1.01	0.889	0.91	0.788	0.204	0.195	0.216	0.2	0.186	–	–	–	–	–	–	–	–	–	–
Calu-6	1.05	0.992	0.892	0.955	0.914	0.809	0.828	0.774	0.725	0.546	–	–	–	–	–	–	–	–	–	–
